{"source": "paper PMC4324364", "about": "(MedChemComm, 2014)", "key": {"HepG2 cell line [1]": {"tested_on": "HepG2 cell line", "conditions": "compound marked as previously reported data; cited from earlier work"}, "L. major amastigotes": {"tested_on": "L. major amastigotes", "conditions": "read-out: L. major Amast EC50, previously reported data; cited from earlier work"}, "Metabolic stability": {"test": "Metabolic stability", "conditions": "in vitro ADME assays"}, "HepG2 cell line [2]": {"tested_on": "HepG2 cell line", "test": "HepG2 host cell toxicity", "format": "cell-based, human"}, "T. brucei [3]": {"tested_on": "T. brucei", "test": "T. brucei cell growth inhibition", "format": "cell-based, Trypanosoma brucei"}, "T. brucei [4]": {"tested_on": "T. brucei", "conditions": "cited from earlier work"}, "[5]": {"conditions": "cited from earlier work"}, "L. major promastigotes": {"tested_on": "L. major promastigotes", "conditions": "read-out: L. major Promast EC50, previously reported data; cited from earlier work"}, "[6]": {"conditions": "cited from earlier work", "remark": "listed apart in the source"}, "T. brucei [7]": {"tested_on": "T. brucei", "conditions": "read-out: T. brucei EC50; previously reported data, same assay; cited from earlier work"}, "[8]": {"tested_on": "P. falciparum (D6 strain)", "conditions": "read-out: P. falciparum D6 EC50, previously reported data; cited from earlier work"}, "T. cruzi": {"tested_on": "T. cruzi", "conditions": "read-out: T. cruzi EC50; previously reported data, same assay; cited from earlier work"}}, "note": "Like-named read-outs stand apart in the source and are kept apart here.", "data": [{"smiles": "Fc1cccc(COc2ccc(Nc3ncnc4ccc(-c5ccccc5)cc34)cc2Cl)c1", "note": "[4b]", "values": [{"measurement": "HepG2 TC50 (concentration leading to 50% growth inhibition of host cells)", "setting": "HepG2 cell line [1]", "result": 4900, "unit": "nM"}, {"measurement": "EC50", "setting": "L. major amastigotes", "result": "> 15000", "unit": "nM"}]}, {"smiles": "Fc1cccc(COc2ccc(Nc3ncnc4ccc(-c5ccc(CN6CCOCC6)cc5)cc34)cc2Cl)c1", "note": "[4j]", "values": [{"measurement": "HepG2 TC50 (concentration leading to 50% growth inhibition of host cells)", "setting": "HepG2 cell line [1]", "result": 12900, "unit": "nM"}]}, {"smiles": "Fc1cccc(COc2ccc(Nc3ncnc4ccc(-c5ccc(N6CCOCC6)cc5)cc34)cc2Cl)c1", "note": "[4k]", "values": [{"measurement": "HepG2 TC50 (concentration leading to 50% growth inhibition of host cells)", "setting": "HepG2 cell line [1]", "result": 9600, "unit": "nM"}, {"measurement": "EC50", "setting": "L. major amastigotes", "result": "> 15000", "unit": "nM"}]}, {"smiles": "Cc1cc(-c2cc3ncnc(Nc4ccc(OCc5cccc(F)c5)c(Cl)c4)c3s2)cnc1N1CCOCC1", "note": "[11e]", "values": [{"measurement": "metabolic stability", "setting": "Metabolic stability", "result": "modest"}]}, {"smiles": "Fc1cccc(COc2ccc(Nc3ncnc4sc(-c5ccccc5)cc34)cc2Cl)c1", "note": "[18b]", "values": [{"measurement": "HepG2 TC50 (concentration leading to 50% growth inhibition of host cells)", "setting": "HepG2 cell line [2]", "result": 10000, "unit": "nM"}]}, {"smiles": "Fc1cccc(COc2ccc(Nc3ncnc4cc(C#C[C@@H]5CCCN5)sc34)cc2Cl)c1", "note": "[GW837016X]", "values": [{"measurement": "potency against T. brucei (in words)", "setting": "T. brucei [3]", "result": "potent"}]}, {"smiles": "CS(=O)(=O)CCNCc1ccc(-c2ccc3ncnc(Nc4ccc(OCc5cccc(F)c5)c(Cl)c4)c3c2)o1", "note": "[compound 1, lapatinib, reference compound]", "values": [{"measurement": "cure of infected mice", "setting": "T. brucei [4]; murine model of HAT", "result": 25, "unit": "%"}]}, {"smiles": "Fc1cccc(COc2ccc(Nc3ncnc4ccc(-c5cccc(N6CCOCC6)c5)cc34)cc2Cl)c1", "note": "[compound 2]", "values": [{"measurement": "central nervous system exposure", "setting": "[5]", "result": "lack of central nervous system exposure"}, {"measurement": "oral bioavailability", "setting": "[5]; mice", "result": "orally bioavailable"}, {"measurement": "EC50", "setting": "L. major promastigotes", "result": 2970, "unit": "nM"}, {"measurement": "plasma protein binding", "setting": "[6]", "result": "> 99", "unit": "%"}, {"measurement": "EC50", "setting": "T. brucei [7]", "result": "42 ± 10", "unit": "nM"}, {"measurement": "EC50", "setting": "[8]", "result": 230, "unit": "nM"}, {"measurement": "metabolic stability", "setting": "Metabolic stability", "result": "modest"}, {"measurement": "effect on parasitemia and life extension", "setting": "T. brucei [4]; murine T. brucei bloodstream infection", "result": "modest effect"}, {"measurement": "EC50", "setting": "T. cruzi", "result": "1800 ± 900", "unit": "nM"}]}]}
